# Reference: patent US20240342947A1, “A WOOD PRESERVATIVE COMPOSITION COMPRISING 4,5-DICHLORO-2-OCTYLISOTHIAZOL-3(2H)-ONE, A METHOD TREATING A WOOD SUBSTRATE THEREWITH, AND A WOOD PRODUCT PRODUCED THEREFROM” (KOPPERS PERFORMANCE CHEMICALS, INC., priority 2021, published 2024)
# Assay: #2 Diesel solvency for DCOI testing
# Assay type: physicochemical
# Method: Solvency (i.e., ability to dissolve) of #2 diesel for DCOI was measured. Initially, different amounts of DCOI (98.5% purity) was dissolved in #2 diesel in respective vials to make a DCOI concentrate. Thereafter, the vials were stored at ambient temperature (i.e., 21 degrees Celsius+/−2 degrees) or 4 degrees Celsius for up to 7 days. During storage, the vials were monitored for phase separation, precipitation, and turbidity, which may indicate incompatibility between the organic solvent and the DCOI. Whenever a phase separation, precipitation or solution turbidity event happened, the vial was no longer monitored and the DCOI concentration in that solution was considered to be higher than the solvency of the organic solvent.
# After two hours of storage at ambient temperature, it was observed that the solvency of #2 diesel for DCOI without any additional polar solvents was no greater than 15% by weight because the DCOI precipitated in the vials containing concentrations of DCOI of greater than 15% by weight. […] Therefore, the maximum solvency of #2 diesel is for DCOI was determined to be 15% by weight.
compound,measurement,setting,value
"CCCCCCCCn1sc(Cl)c(Cl)c1=O [DCOI, 4,5-dichloro-2-octylisothiazol-3 (2H)-one]",solvency of #2 diesel for DCOI,"after two hours of storage at ambient temperature, without any additional polar solvents",≤ 15 % by weight
same,maximum solvency of #2 diesel for DCOI,"ambient temperature, no solid DCOI precipitated after 7 days",15 % by weight
